≈ marks a conversion by molar mass, not a printed value. Where two headings read alike, the source gives them in different places. Bridge positions count the residues as written; N and C are the ends. Peptide text beside a SMILES is read from it.
Columns and labels:
[1] = tested on: Colletotrichum gloeosporioides
B. cinerea = experiment: Drop inoculation assay on detached Nicotiana benthamiana leaves (semi-in planta); format: in vivo, Botrytis cinerea; details: 48 h; for Reduction of gray mold disease symptoms: detached N. benthamiana leaves, no single concentration stated
C. parapsilosis = experiment: Antifungal MIC, CLSI M27/M38, half-strength potato dextrose broth; format: cell-based, Candida parapsilosis; details: C. parapsilosis ATCC 22019; 24-72 hours
Method: (§1) Testing for antifungal activity used half-strength potato dextrose broth for peptides and RPMI for comparator antifungals fluconazole and voriconazole. CLSI M27 and M38 methodologies used for to measure MICs. Minimal Inhibitory Concentration (MIC) is the concentration of the compound, protein, or peptide at which there is no significant growth of the microorganism relative to the growth of the microorganism in growth medium lacking the compound, protein, or peptide.
(§2) […] The concentration range for peptides in potato dextrose broth was 0.06-2 mcg/ml, the concentration range for fluconazole was 0.125-64 mcg/ml, and the concentration range for voriconazole was 0.03-16 mcg/ml. MICs were determined at 24-72 hours.

Coccidioides sp. = format: cell-based
Candida auris = experiment: Antifungal MIC, CLSI M27/M38, half-strength potato dextrose broth; format: cell-based
Method: as §1, §2

C. krusei = experiment: as above; format: cell-based; details: C. krusei ATCC 6258; 24-72 hours
Method: as §1, §2

Aspergillus fumigatus = experiment: as above; format: cell-based
Method: as §1, §2

P. variotii = experiment: as above; format: cell-based; details: P. variotii MYA-363; 24-72 hours
Method: as §1, §2

Candida albicans = experiment: as above; format: cell-based
Method: as §1, §2

Fusarium (F. oxysporum) = experiment: as above; format: cell-based
Method: as §1, §2

Fusarium (F. solani) = experiment: as above; format: cell-based; details: Fusarium F4 (F. solani)
Method: as §1, §2

[2] = unit from method, none in Table 19

## C[C@H](NC(=O)CN)C(=O)N[C@H]1CSSC[C@@H](C(N)=O)NC(=O)[C@H](CCCCN)NC(=O)[C@H](CCCCN)NC(=O)[C@H](Cc2ccc(O)cc2)NC(=O)[C@H](Cc2c[nH]c3ccccc23)NC(=O)[C@H](Cc2ccccc2)NC(=O)[C@H](Cc2c[nH]c3ccccc23)NC(=O)[C@H](C)NC(=O)[C@H](Cc2ccccc2)NC(=O)CNC(=O)[C@H](Cc2ccccc2)NC(=O)CNC(=O)[C@H](CCC(N)=O)NC(=O)[C@H](CCCNC(=N)N)NC(=O)[C@H](Cc2c[nH]cn2)NC1=O [GMA5CA_V3] (H-GACHRQGFGFAWFWYKKC-NH2; disulfide 3-18; N-terminus assumed)
Botrytis cinerea
  MIC (μM) (SFM + 2 mM CaCl2): >12 µM
  MIC (μM) (SFM + 100 mM KCl): >12 µM
  MIC (μM) (SFM + 100 mM NaCl): >12 µM
  MIC (μM) SFM: 3 µM (≈ 6.57 µg/mL)
Cercospora sojina; [2]
  MIC, Cercospora sojina: 6 µM (≈ 13.1 µg/mL)
[1]; [2]
  MIC, Colletotrichum gloeosporioides: >12 µM
Alternaria alternata; [2]
  MIC, Alternaria alternata: 3 µM (≈ 6.57 µg/mL)

## CC[C@H](C)[C@@H]1NC(=O)[C@H](CCCNC(=N)N)NC(=O)[C@H]([C@@H](C)O)NC(=O)[C@H](Cc2ccccc2)NC(=O)[C@H](Cc2c[nH]c3ccccc23)NC(=O)[C@H](Cc2ccccc2)NC(=O)[C@H](CCCNC(=N)N)NC(=O)[C@H](CCCNC(=N)N)NC(=O)[C@H](CC(C)C)NC(=O)[C@H](Cc2ccccc2)NC(=O)CNC(=O)[C@H](CCCCN)NC(=O)[C@@H](NC(=O)[C@H](CCCNC(=N)N)NC(=O)CNC(=O)CN)CSSC[C@@H](C(N)=O)NC1=O [GMA4C_V9] (H-GGRCKGFLRRFWFTRIC-NH2; disulfide 4-17; N-terminus assumed)
Botrytis cinerea
  MIC (μM) (SFM + 2 mM CaCl2): 12 µM
  MIC (μM) (SFM + 100 mM KCl): 6 to 12 µM
  MIC (μM) (SFM + 100 mM NaCl): 3 µM
  MIC (μM) SFM: 3 µM (≈ 6.3 µg/mL)
B. cinerea
  Reduction of gray mold disease symptoms: effective in reducing gray mold disease symptoms
Cercospora sojina; [2]
  MIC, Cercospora sojina: 6 µM (≈ 12.6 µg/mL)
[1]; [2]
  MIC, Colletotrichum gloeosporioides: >12 µM
Alternaria alternata; [2]
  MIC, Alternaria alternata: >12 µM

## N=C(N)NCCC[C@H](NC(=O)CNC(=O)[C@@H](N)Cc1ccccc1)C(=O)N[C@@H](CS)C(=O)N[C@@H](CCCNC(=N)N)C(=O)NCC(=O)N[C@@H](Cc1ccccc1)C(=O)N[C@@H](CCCNC(=N)N)C(=O)N[C@@H](CCCNC(=N)N)C(=O)N[C@@H](CCCNC(=N)N)C(=O)N[C@@H](CS)C(=O)N[C@@H](Cc1ccccc1)C(=O)N[C@@H](CS)C(=O)N[C@@H](Cc1c[nH]c2ccccc12)C(=O)N[C@@H](CCCNC(=N)N)C(=O)N[C@@H](Cc1c[nH]c2ccccc12)C(=O)N[C@@H](CS)C(N)=O [GMA4C_V4A] (H-FGRCRGFRRRCFCWRWC-NH2; N-terminus assumed)
Botrytis cinerea
  Fungal growth inhibition in presence of 2 mM CaCl2: inhibit fungal growth
  MIC (μM) Botrytis cinerea: 1.5 µM (≈ 3.44 µg/mL)
  MIC Values (μM) against B. cinerea: 1.5 µM (≈ 3.44 µg/mL)
  Potency relative to GMA4C_AC in presence of cations: 2 fold
  SFM + 2 mM CaCl2 MIC: 3 to 6 µM
  SFM + 100 mM KCl MIC: 1.5 µM
  SFM + 100 mM NaCl MIC: 1.5 µM
  SFM MIC: 1.5 to 3 µM
C. parapsilosis
  MIC 100%: 8 µg/mL (≈ 3.49 µM)
Coccidioides sp.; Coccidioides sp. Cocci1
  MIC 100%: 4 µg/mL (≈ 1.74 µM)
Coccidioides sp.; Coccidioides sp. Cocci2
  MIC 100%: 16 µg/mL (≈ 6.97 µM)
Coccidioides sp.; Coccidioides sp. DI17-143
  MIC 100%: 16 µg/mL (≈ 6.97 µM)
Candida auris; Candida auris DI17-46
  MIC 100%: 8 µg/mL (≈ 3.49 µM)
Candida auris; Candida auris DI17-47
  MIC 100%: 8 µg/mL (≈ 3.49 µM)
Candida auris; Candida auris DI17-48
  MIC 100%: 8 µg/mL (≈ 3.49 µM)
C. krusei
  MIC 100%: 8 µg/mL (≈ 3.49 µM)
Aspergillus fumigatus; Aspergillus fumigatus AF293
  MIC 100%: 16 µg/mL (≈ 6.97 µM)
Aspergillus fumigatus; Aspergillus fumigatus DI15-106
  MIC 100%: 16 µg/mL (≈ 6.97 µM)
Aspergillus fumigatus; Aspergillus fumigatus DI15-116
  MIC 100%: 32 µg/mL (≈ 13.9 µM)
P. variotii
  MIC 100%: 8 µg/mL (≈ 3.49 µM)
Candida albicans; Candida albicans ATCC 90028
  MIC 100%: 8 µg/mL (≈ 3.49 µM)
Candida albicans; Candida albicans CA3
  MIC 100%: 8 µg/mL (≈ 3.49 µM)
Candida albicans; Candida albicans SC5314
  MIC 100%: 8 µg/mL (≈ 3.49 µM)
Fusarium (F. oxysporum); Fusarium F1 (F. oxysporum)
  MIC 100%: 8 µg/mL (≈ 3.49 µM)
Fusarium (F. oxysporum); Fusarium F2 (F. oxysporum)
  MIC 100%: 8 µg/mL (≈ 3.49 µM)
Fusarium (F. solani)
  MIC 100%: 8 µg/mL (≈ 3.49 µM)

## C[C@@H](O)[C@H](NC(=O)[C@H](CS)NC(=O)[C@H](Cc1ccccc1)NC(=O)[C@H](CS)NC(=O)[C@H](CCCNC(=N)N)NC(=O)[C@H](CCCNC(=N)N)NC(=O)[C@H](CCCNC(=N)N)NC(=O)[C@H](Cc1ccccc1)NC(=O)CNC(=O)[C@H](CCCNC(=N)N)NC(=O)[C@H](CS)NC(=O)[C@H](CCCNC(=N)N)NC(=O)CN)C(=O)N[C@H](C(=O)N[C@@H](Cc1c[nH]cn1)C(=O)N[C@@H](CS)C(=O)O)[C@@H](C)O [GMA4AC, reference compound] (H-GRCRGFRRRCFCTTHC-OH; N-terminus assumed)
Botrytis cinerea
  MIC (μM) Botrytis cinerea: 6 µM (≈ 11.8 µg/mL)
Fusarium graminearum
  MIC (μM) Fusarium graminearum: 6 µM (≈ 11.8 µg/mL)

## CC[C@H](C)[C@@H]1NC(=O)[C@H](CCCNC(=N)N)NC(=O)[C@H]([C@@H](C)O)NC(=O)[C@H](Cc2c[nH]c3ccccc23)NC(=O)[C@H](Cc2ccc(O)cc2)NC(=O)[C@H](Cc2c[nH]c3ccccc23)NC(=O)[C@H](CCCNC(=N)N)NC(=O)[C@H](CCCNC(=N)N)NC(=O)[C@H](CCCNC(=N)N)NC(=O)[C@H](Cc2ccccc2)NC(=O)CNC(=O)[C@H](CCCCN)NC(=O)[C@@H](NC(=O)[C@H](CCCNC(=N)N)NC(=O)CNC(=O)CN)CSSC[C@@H](C(N)=O)NC1=O [GMA4C_V10] (H-GGRCKGFRRRWYWTRIC-NH2; disulfide 4-17; N-terminus assumed)
Botrytis cinerea
  MIC (μM) (SFM + 2 mM CaCl2): 3 µM
  MIC (μM) (SFM + 100 mM KCl): 3 to 6 µM
  MIC (μM) (SFM + 100 mM NaCl): 3 µM
  MIC (μM) SFM: 3 µM (≈ 6.6 µg/mL)
B. cinerea
  Reduction of gray mold disease symptoms: effective in reducing gray mold disease symptoms
B. cinerea; peptide at 1.5 μM and 3 μM
  Gray mold symptoms, drop inoculation assay: more effective in reducing the symptoms of gray mold than GMA4C_V9
B. cinerea; peptide at 6 μM
  Gray mold symptoms, drop inoculation assay: completely abrogates gray mold symptoms
Cercospora sojina; [2]
  MIC, Cercospora sojina: 6 µM (≈ 13.2 µg/mL)
[1]; [2]
  MIC, Colletotrichum gloeosporioides: >12 µM
Alternaria alternata; [2]
  MIC, Alternaria alternata: >12 µM

## C[C@@H](O)[C@H](NC(=O)[C@H](CS)NC(=O)[C@H](Cc1ccccc1)NC(=O)[C@H](CS)NC(=O)[C@H](CCCNC(=N)N)NC(=O)[C@H](CCCNC(=N)N)NC(=O)[C@H](CCCNC(=N)N)NC(=O)[C@H](Cc1ccccc1)NC(=O)CNC(=O)[C@H](CCCNC(=N)N)NC(=O)[C@H](CS)NC(=O)[C@H](CCCNC(=N)N)NC(=O)CN)C(=O)N[C@H](C(=O)N[C@@H](Cc1c[nH]cn1)C(=O)N[C@@H](CS)C(N)=O)[C@@H](C)O [GMA4AC, reference compound] (H-GRCRGFRRRCFCTTHC-NH2)
Cercospora sojina
  MIC, Cercospora sojina: >12 µM
[1]
  MIC, Colletotrichum gloeosporioides: >12 µM
Alternaria alternata
  MIC, Alternaria alternata: >12 µM

## C[C@H](NC(=O)CN)C(=O)N[C@H]1CSSC[C@@H](C(N)=O)NC(=O)[C@H](CCCCN)NC(=O)[C@H](CCCCN)NC(=O)[C@H](Cc2ccc(O)cc2)NC(=O)[C@H](Cc2ccccc2)NC(=O)[C@H](Cc2ccccc2)NC(=O)[C@H](Cc2ccccc2)NC(=O)[C@H](C)NC(=O)[C@H](Cc2ccccc2)NC(=O)CNC(=O)[C@H](Cc2ccccc2)NC(=O)CNC(=O)[C@H](CCC(N)=O)NC(=O)[C@H](CCCNC(=N)N)NC(=O)[C@H](Cc2c[nH]cn2)NC1=O [GMA5CA_V4] (H-GACHRQGFGFAFFFYKKC-NH2; disulfide 3-18; N-terminus assumed)
Botrytis cinerea
  MIC (μM) (SFM + 2 mM CaCl2): >12 µM
  MIC (μM) (SFM + 100 mM KCl): >12 µM
  MIC (μM) (SFM + 100 mM NaCl): >12 µM
  MIC (μM) SFM: 3 µM (≈ 6.33 µg/mL)
Cercospora sojina; [2]
  MIC, Cercospora sojina: 6 µM (≈ 12.7 µg/mL)
[1]; [2]
  MIC, Colletotrichum gloeosporioides: >12 µM
Alternaria alternata; [2]
  MIC, Alternaria alternata: 3 µM (≈ 6.33 µg/mL)

Source: patent US20220408731A1, “MODIFIED ANTIMICROBIAL PEPTIDES” (priority 2021, published 2022)
